Data reported in ChEMBL document CHEMBL6071211, “Invention of VH-937, a Potent HIV-1 Maturation Inhibitor with the Potential for Infrequent Oral Dosing in Humans” (ACS Med Chem Lett, 2024).
Values after ≈ are worked out from the molar mass of the structure shown.

Experiments:
[1] = Volume of distribution at steady state in mouse at 1 mg/kg, iv; assay type: ADME, organism-based; settings: in vivo, read-out: Vdss
[2] = AUC (infinity) in rat at 1 mg/kg, iv; assay type: ADME, organism-based; settings: in vivo
[3] = Volume of distribution at steady state in dog at 2 mg/kg, iv; assay type: ADME, organism-based, Canis lupus familiaris; settings: in vivo, read-out: Vdss
[4] = system: Human immunodeficiency virus 1; assay: In vitro antiviral activity against fully replicating HIV1 harboring Gag V370A mutant by multicycle assay; assay type: functional, organism-based
[5] = Toxicity in normal healthy human volunteers assessed as adverse effect at 10 mg for 15 days and followed by 30 mg; settings: in vivo, 360 h, time 15 day
[6] = AUC (infinity) in mouse at 5 mg/kg, po; assay type: ADME, organism-based; settings: in vivo
[7] = Aqueous solubility of compound in fasted state simulated intestinal fluid (FaSSIF) at pH 6.6; assay type: physicochemical
[8] = Clearance in mouse at 1 mg/kg, iv; assay type: ADME, organism-based; settings: in vivo
[9] = Clearance in rat at 1 mg/kg, iv; assay type: ADME, organism-based; settings: in vivo
[10] = system: Human immunodeficiency virus 1; assay: In vitro antiviral activity against HIV1 subtype A clinical isolate UG275; assay type: functional, organism-based; settings: Human immunodeficiency virus 1, UG275
[11] = system: Human immunodeficiency virus 1; assay: In vitro antiviral activity against fully replicating HIV1 harboring Gag V370A mutant assessed as maximum percent inhibition by multicycle assay relative to control; assay type: functional
[12] = Elimination half life in mouse at 5 mg/kg, po; assay type: ADME, organism-based; settings: in vivo, read-out: beta t1/2 (converted)
[13] = system: Human immunodeficiency virus 1; assay: Ratio of EC50 for antiviral activity against fully replicating HIV1 harboring Gag V3621/V370A mutant by multicycle assay to EC50 for antiviral activity against fully replicating wild type HIV1 NLRepRluc-P373S by multicycle assay; assay type: functional
[14] = AUC (infinity) in Cynomolgus monkey at 5 mg/kg, po; assay type: ADME, organism-based, Macaca fascicularis; settings: in vivo
[15] = Metabolic stability in human liver microsomes assessed as half life; assay type: ADME, Microsome
[16] = system: Human immunodeficiency virus 1; assay: In vitro antiviral activity against fully replicating wild type HIV1 NLRepRluc-P373S assessed as maximum percent inhibition by multicycle assay relative to control; assay type: functional
[17] = system: Human immunodeficiency virus 1; assay: Ratio of EC50 for antiviral activity against fully replicating pseudotype HIV1 harboring Gag A364V mutant by single cycle assay to EC50 for antiviral activity against fully replicating wild type pseudotype HIV1 NLRepRluc-P373S by single cycle assay; assay type: functional
[18] = system: Human immunodeficiency virus 1; assay: In vitro antiviral activity against fully replicating HIV1 harboring Gag T332S/[…]/prR41G mutant by multicycle assay; assay type: functional, organism-based
[19] = system: Human immunodeficiency virus 1; assay: In vitro antiviral activity against HIV1 subtype F clinical isolate BZ126; assay type: functional, organism-based; settings: Human immunodeficiency virus 1, BZ126

## C=C(C)[C@@H]1CC[C@]2(NCCN3CCS(=O)(=O)CC3)CC[C@]3(C)[C@H](CC[C@@H]4[C@@]5(C)CC=C(C6=CC[C@](COc7ncccc7C#N)(C(=O)O)CC6)C(C)(C)[C@@H]5CC[C@]43C)[C@@H]12
[1]
  Vd: 0.53 L/kg
[2]
  AUC(0-inf): 16.1 µM·h
[3]
  Vd: 0.43 L/kg
[4]
  EC50: 4 nM
[5]
  Activity: Non-Toxic
[6]
  AUC(0-inf): 73.8 µM·h
[7]
  solubility: 19 mg/mL (≈ 23 mM)
[8]
  clearance: 0.63 mL/min/kg
[9]
  clearance: 1.23 mL/min/kg
[10]
  EC50: 2 nM
[11]
  Imax: 98.5%
[12]
  half-life: 14.5 h
[13]
  Ratio EC50: 1
[14]
  AUC(0-inf): 56.3 µM·h
[15]
  half-life: > 2 h
[16]
  Imax: 99.1%
[17]
  Ratio EC50: 6.4
[18]
  EC50: 8 nM
[19]
  EC50: 2 nM
